Measurements from patent publication US11628226B2, “Methods and gene therapy constructs for treating GM2 gangliosidoses” (priority 2016, dated 2023).

What was measured:
[1] = system: Sandhoff mouse (hexb-/-); assay: Open field test of motor activity in SD mice; assay type: in vivo; conditions: HEXB-HEXA treated SD mice plus drug, week 24
Description: Behavioural testing was carried out on a bi-weekly basis from the age of eight weeks until each end point. The behavioural testing was done in three different parts and always assessed in the morning of the 12 hour light cycle.
Open Field Test: Used to assess overall locomotion and activity levels. The mouse was placed in a 40 cm×40 cm arena with walls. Time moving, rearing activity and the distance travelled were all electronically recorded by an ActiMot system. Speed was calculated by dividing the distance travelled by the time moving. Each mouse underwent one five minute trial.
To determine if the administration of AAV9-HexB-HexA improved motor activity in the neonatally treated SD mice, distance travelled in the 5-minute open-field test was analyzed. Testing began at eight weeks, when motor deterioration in SD mice begins to show and continued on a bi-weekly basis to 24 weeks. […] In FIG. 4, values at each point represent the mean.

[2] = system: GM2 ganglioside storage in mouse brain; assay: GM2 ganglioside levels in midbrain by thin layer chromatography; assay type: in vivo; conditions: 16-week midbrain, drug on its own or in addition to HEXB-HEXA
Description: Animal tissues were collected at designated 16 week end points and long term humane end points. The humane end points were determined by either […] loss of peak body weight or an inability to right itself in 10 seconds. Euthanization was carried out via CO2 asphyxiation followed by cardiac puncture and perfusion with 10 mL of chilled PBS. For biochemical analysis sections of the forebrain, midbrain, hindbrain, cervical spinal cord, and lumbar spinal cord were collected along with the heart, lungs, liver, spleen, kidney, gonads, and a section skeletal muscle. These were all frozen immediately for further processing. For histological purposes, sections of the midbrain and liver were collected, fixed in 4% paraformaldehyde overnight and then immersed in 100% ethanol until sent to the Queen's University Histology department for paraffin embedding. Additional midbrain sections were collected from a number of mice and frozen in liquid nitrogen. Blood was collected via the saphenous vein on a monthly basis starting at 8 weeks and continuing until the humane end point. Additionally, blood was collected via the cardiac puncture during euthanization. Serum was separated from blood samples by centrifugation of 4000 rpm for 10 min and frozen immediately for storage. […]

[3] = system: Sandhoff mouse (hexb-/-); assay: Survival of SD mice (Kaplan-Meier, humane end point); assay type: in vivo; conditions: for Survival in conjunction with HEXB-HEXA: AAV9-HEXB-HEXA neonatal day one 2×10^13 vg/kg plus daily oral drug from eight weeks; for Survival time: untreated SD mice 110 days; for Mice that did not reach humane end point after 210 days: drug in conjunction with HEXB-HEXA, n=6 per group
Description: The hexb−/− experimental mice were obtained from Jackson Laboratories. From these, a colony was established at Queen's University through heterozygous breeding (hexb+/−). Genotyping of the mice was carried out via PCR amplification from animal ear punches taken at the time of weaning (three weeks of age). Experimental animals were obtained through mutant cross breeding (hexb−/−). The mice were maintained on a 12-hour light cycle from 7 am to 7 pm. All experimental protocols and procedures were performed in accordance with and were approved by the Queen's University Animal Care Committee.
Neonatal mice were intravenously injected with the ssAAV/HEXB-HEXA vector or a vehicle injection through the superficial temporal vein on day 0-1. Each treated mouse received an injection of 2.04×10^10 vg/mouse in a volume of 50 uL PBS with […] NaCl and 5% sorbitol (vehicle). Untreated mice received an injection of 50 uL vehicle. During the injections, the dames were removed from the pups and placed in a clean cage. The cage of the pups alone was placed on a heating pad to keep them warm. Pups were then removed from the cage, one at a time, and placed over an LED light to aid in visualization of the superficial temporal vein. The pups received the injection using a 30 gauge needle and 1 mL syringe. After the injection, pressure was applied to the mouse using sterile gauze and the pup was returned to the home cage. The dame was returned to the cage with the pups following the completion of all injections. Pups were then monitored closely for several days to ensure survival.
Starting at eight weeks of age, each drug treatment cohort received pyrimethamine, indomethacin, or ITF2357 at a dose of 1 mg/kg/day. Drug treatments were administered in the morning of the 12-hour light cycle via oral gavage using a 22 g curved feeding needle from Kent Scientific. ITF2357 was dissolved in ddH2O by heating to 85° C. while stirring for 1 hour. Indomethacin and pyrimethamine were each dissolved in 0.5% methylcellulose by heating to 80° C. while stirring for 1 hour. Each of these was stored at 4° C. for up to 2 weeks.
Animal tissues were collected at designated 16 week end points and long term humane end points. The humane end points were determined by either […] loss of peak body weight or an inability to right itself in 10 seconds. Euthanization was carried out via CO2 asphyxiation followed by cardiac puncture and perfusion with 10 mL of chilled PBS. For biochemical analysis sections of the forebrain, midbrain, hindbrain, cervical spinal cord, and lumbar spinal cord were collected along with the heart, lungs, liver, spleen, kidney, gonads, and a section skeletal muscle. These were all frozen immediately for further processing. For histological purposes, sections of the midbrain and liver were collected, fixed in 4% paraformaldehyde overnight and then immersed in 100% ethanol until sent to the Queen's University Histology department for paraffin embedding. Additional midbrain sections were collected from a number of mice and frozen in liquid nitrogen. Blood was collected via the saphenous vein on a monthly basis starting at 8 weeks and continuing until the humane end point. Additionally, blood was collected via the cardiac puncture during euthanization. Serum was separated from blood samples by centrifugation of 4000 rpm for 10 min and frozen immediately for storage.
To evaluate the efficacy of a single intravenous […] of rAAV9 expressing the human HEXA and HEXB cDNA in ameliorating the biochemical and neurological phenotype in SD, AAV9-HEXB-HEXA or a vehicle control was administered to postnatal day one neonates at a relatively low dose of 2×10^13 vg/kg via superficial temporal vein. Mice were all followed until they reached 32 weeks of age, or a humane end point.
Survival was analyzed with the log-rank (Mantel-Cox) test. […] This relationship is shown by the Kaplan-Meier plots in FIG. 3. […]

[4] = system: β-hexosaminidase A (HexA); assay: HexA activity in midbrain (4-MUGS assay); assay type: in vivo, mouse; conditions: 16-week midbrain, drug alone or in conjunction with HEXB-HEXA
Description: Animal tissues were collected at designated 16 week end points and long term humane end points. The humane end points were determined by either […] loss of peak body weight or an inability to right itself in 10 seconds. Euthanization was carried out via CO2 asphyxiation followed by cardiac puncture and perfusion with 10 mL of chilled PBS. For biochemical analysis sections of the forebrain, midbrain, hindbrain, cervical spinal cord, and lumbar spinal cord were collected along with the heart, lungs, liver, spleen, kidney, gonads, and a section skeletal muscle. These were all frozen immediately for further processing. […]
Total hexosaminidase activity and Hex activity was measured as previously described (Maegawa et al. 2007; Tropak et al. 2004). […] Total hexosaminidase activity was determined through the use of the 4-methylumbelliferyl-2-acetamido-2-deoxy-β-D-glucopyranoside (4-MUG) assay, whereas the HexA enzyme activity alone was determined through the use of the 4-methylumbelliferyl-7-6-sulfo-2-acetamido-2-deoxy-β-D-glucopyranoside (4-MUGS) assay. Beta galactosidase activity was determined through the use of 4-methylumbelliferyl-β-D-galactopyranoside assay. […] Briefly, the samples were incubated with the fluorogenic substrate at 37° C. for 1 hour, then read on the plate reader with excitation wavelength of 365 nm and an emission wavelength of 450 nm. […]

[5] = SD mice, drug alone 1 mg/kg/day oral gavage from eight weeks

| SMILES | Mobility in the open field test in conjunction with HEXB-HEXA [1] | Additional decrease in GM2 ganglioside build-up [2] | Survival in conjunction with HEXB-HEXA ([3]; SD mice) | Survival time [3, 5] | Mice that did not reach humane end point after 210 days [3] | Further change in HexA activity [4] | Survival (mean) ([3]; SD mice, drug alone 1 mg/kg/day oral gavage from eight weeks, no significant effect) |
| --- | --- | --- | --- | --- | --- | --- | --- |
| COc1ccc2c(c1)c(CC(=O)O)c(C)n2C(=O)c1ccc(Cl)cc1 [indomethacin] | significant increase in mobility | No additional decrease | significant increase in survival | 123.5 days | two | no further increase or decrease |  |
| CCN(CC)Cc1ccc2cc(COC(=O)Nc3ccc(C(=O)NO)cc3)ccc2c1 [ITF2357] | significant increase in mobility | No additional decrease | significant increase in survival | 119 days | two | no further increase or decrease |  |
| CCc1nc(N)nc(N)c1-c1ccc(Cl)cc1 [pyrimethamine] |  |  |  |  |  |  | 112.5 days |
